The nature of series [1]: UV-Vis calibration: molar attenuation coefficient at 357 nM in isopropanol. Type of series: physicochemical. The following applies: run in triplicate, per mole of compound or dendrimer conjugate. From the text:
Avobenzone and the avobenzone conjugates were each dissolved in isopropanol and the titrations were run in triplicate to calculate extinction coefficients for each conjugate.
UV analysis was run on each conjugate to test the absorbance and degradation profile of each compound. The linker and scaffold must not shift the UV absorbance profile of the avobenzone if it is to be used as an additive in sunscreen formulations. Otherwise, it might no longer be active as a UV-A filter. UV calibrations were run for free avobenzone, avobenzone with linker, and each class and generation of dendrimer-avobenzone conjugate to compare the modified molecules to the original under the same conditions.
The molar attenuation coefficient for each compound was calculated at 357 nM, the absorption maximum in the UVA-1 range. […] Additionally, no shift was observed after ligation to the dendrimer scaffolds.
Extinction coefficient curves were taken in isopropanol, a protic solvent known to stabilize avobenzone under UV irradiation, allowing the curve to be run on a single sample of avobenzone per curve without loss of activity (Mturi et al., J. Phoochem. Pholobiol. 200:410-20 (2008), which is hereby incorporated by reference in its entirety).

Series [2] can be described thus: UV decay / UV stability: change of absorbance under UV lamp over four hours. Type of series: physicochemical. The following applies: ethyl acetate, UV lamp 365 nM, peak at 357 nm, triplicate, average. An excerpt:
Avobenzone and the avobenzone conjugates were each dissolved in ethyl acetate, unless otherwise noted, and sealed in airtight quartz cuvettes. […] The avobenzone decay curves were run in triplicate and extra decay curves run in duplicate. UV stability experiments were run in triplicate in ethyl acetate (Mturi et al., J. Photochem. […] Unlike isopropanol, this solvent is known to encourage degradation and was chosen so that the experimental time scales would be similar to the time scale of sun exposure in vivo. Due to FDA regulations, all commercial sunscreens are labeled with instructions to reapply every two hours. The avobenzone systems were tested over four hours, double that time. The avobenzone, avobenzone linker, or avobenzone-dendrimer conjugate was dissolved in a small amount of isopropanol. In each study 90 μL of the stock solution was added to 3 mL of ethyl acetate and sealed in an airtight quartz cuvette. The initial absorptions were measured and the samples were sealed in quartz cuvettes and left under a UV lamp emitting at 365 nM. The absorption profile was measured at regular intervals.

The values below come from patent US11291620B2, “Avobenzone-dendrimer conjugates” (NEW YORK UNIVERSITY, priority 2018, dated 2022).

Turning to `COc1ccc(C(=O)C(CCCCCCCCCCCO)C(=O)c2ccc(C(C)(C)C)cc2)cc1` (stereo not shown) [avobenzone with linker], the “molar attenuation coefficient (for the compound / conjugate)” value in series [1] is recorded as 2,899 M^−1 cm^−1. For the same compound, in series [2], the “final absorbance as % of the initial absorbance” value worked out at 108±1.8%.
The like results for `COc1ccc(C(=O)CC(=O)c2ccc(C(C)(C)C)cc2)cc1` [bare avobenzone, 4-Tert-butyl-4′-methoxydibenzoylmethane] were, in that order, 1,039 M^−1 cm^−1 and 90.7±1.4%.
